ChEMBL document CHEMBL4342426, “Structure-activity relationship of 4-azaindole-2-piperidine derivatives as agents against Trypanosoma cruzi” (Bioorg Med Chem Lett, 2020)
Values after ≈ are worked out from the molar mass of the structure shown.

Assays:
in vitro [1] = conditions: human, MRC5 SV2 cells
Description: Selectivity index, ratio of IC50 for human MRC5 SV2 cells to IC50 for Trypanosoma brucei Squib 427

in vitro [2] = conditions: human, liver microsomes
Description: Metabolic stability in human liver microsomes assessed as intrinsic clearance at 0.5 uM incubated for 30 mins by LC-MS/MS analysis

Leishmania infantum = assay: microbe, parasite or virus in culture; conditions: MHOM/MA(BE)/67/ITMAP263, 120 h
Description: Antileishmanial activity against amastigote stage of Leishmania infantum MHOM/MA(BE)/67/ITMAP263 infected in mouse peritoneal macrophage assessed as parasite growth inhibition incubated for 5 days by Giemsa staining based assay

physchem [3] = conditions: PBS buffer, pH 2
Description: Kinetic solubility of compound in PBS buffer at pH 2

in vitro [4] = conditions: human, MRC5 SV2 cells; remark: listed apart in the source
Description: (§1) Cytotoxicity against human MRC5 SV2 cells assessed as reduction in cell viability incubated for 3 days by fluorimetry

physchem [5] = conditions: buffer, pH 7.4
Description: Lipophilicity, logD of compound at pH 7.4 by HPLC analysis

in vitro [6] = conditions: human, MRC5 SV2 cells; remark: listed apart in the source
Description: Selectivity index, ratio of IC50 for human MRC5 SV2 cells to IC50 for Trypanosoma brucei rhodesiense STIB900 trypomastigotes

Trypanosoma cruzi = assay: microbe, parasite or virus in culture; conditions: Tulahuen CL2, MRC-5 SV2, 168 h
Description: Antitrypanosomal activity against Trypanosoma cruzi Tulahuen CL2 amastigotes infected in human MRC5 SV2 cells incubated for 7 days by chlorophenol red beta-D-galactopyranoside substrate based spectrophotometric assay

in vitro [7] = conditions: PAMPA
Description: Effective permeability of compound by PAMPA assay

Macrophage = assay: cells; conditions: Mus musculus, 72 h
Description: (§2) Cytotoxicity against mouse peritoneal Macrophage cells assessed as reduction in cell viability incubated for 3 days by fluorimetry

in vitro [8] = conditions: mouse, liver microsomes
Description: Metabolic stability in mouse liver microsomes assessed as intrinsic clearance at 0.5 uM incubated for 30 mins by LC-MS/MS analysis

Trypanosoma brucei = assay: microbe, parasite or virus in culture; conditions: Squib 427, 72 h
Description: Antitrypanosomal activity against Trypanosoma brucei Squib 427 assessed as reduction in parasite growth incubated for 72 hrs by resazurin dye based fluorimetric analysis

in vitro [9] = conditions: dog, MDCK
Description: Apparent permeability across basolateral to apical side in MDCK cells

physchem [10] = conditions: PBS buffer, pH 7.4
Description: Kinetic solubility of compound in PBS buffer at pH 7.4

cells = conditions: Homo sapiens, MRC-5 SV2, 72 h
Description: as §1

in vitro [11] = conditions: dog, MDCK; remark: listed apart in the source
[12] = tested on: Trypanosoma brucei rhodesiense; assay: microbe, parasite or virus in culture; conditions: STIB900, 72 h
Description: Antiprotozoal activity against Trypanosoma brucei rhodesiense STIB900 trypomastigotes incubated for 72 hrs by resazurin dye based fluorimetric analysis

in vitro [13] = conditions: mouse, peritoneal macrophages
Description: as §2

in vitro [14] = conditions: human, MRC5 SV2 cells; remark: listed apart in the source
Description: Selectivity index, ratio of IC50 for human MRC5 SV2 cells to IC50 for Trypanosoma cruzi Tulahuen CL2 amastigotes infected in human MRC5 SV2 cells

in vitro [15] = conditions: mouse, peritoneal macrophages; remark: listed apart in the source
Description: Selectivity index, ratio of IC50 for mouse peritoneal macrophage to IC50 for Leishmania infantum MHOM/MA(BE)/67/ITMAP263 infected in mouse peritoneal macrophage

CC(C)c1cc(C(=O)N2CC=C(c3cc4ncccc4[nH]3)CC2)on1
selectivity ratio (in vitro [1]): 1.74 | CLint scaled at 0.5 h, 0.5 µM (in vitro [2]): 119 mL/min/kg | microsomal CLint at 0.5 h, 0.5 µM (in vitro [2]): 23 to 59.2 µL/min/mg | IC50 (Leishmania infantum): 27.9 to 41.6 µM | solubility kinetic (physchem [3]): > 67.3 µg/mL | IC90 at 72 h (in vitro [4]): 64 µM | logD (physchem [5]): 3.23 | selectivity ratio (in vitro [6]): 4.14 to 8.02 | IC50 (Trypanosoma cruzi): 2.01 to 2.12 µM | IC90 (Trypanosoma cruzi): 3.79 to 15.4 µM | Papp (in vitro [7]): 1.54 ×10⁻⁶ cm/s | IC50 (Macrophage): 64 µM | CLint scaled at 0.5 h, 0.5 µM (in vitro [8]): 2650 mL/min/kg | microsomal CLint at 0.5 h, 0.5 µM (in vitro [8]): 398 to 446 µL/min/mg | IC50 (Trypanosoma brucei): 36.7 to 38.7 µM | IC90 (Trypanosoma brucei): 58.8 to 63.5 µM | Papp B→A (in vitro [9]): 15.3 ×10⁻⁶ cm/s | solubility kinetic (physchem [10]): 10.4 µg/mL (≈ 31 µM) | IC50 (cells): 64 µM | Papp A→B (in vitro [11]): 14.6 ×10⁻⁶ cm/s | IC50 [12]: 7.97 to 15.5 µM | IC90 [12]: 36.4 to 49.5 µM | IC90 at 72 h (in vitro [13]): 64 µM | selectivity ratio (in vitro [14]): 30.1 to 31.8 | selectivity ratio (in vitro [15]): 2.32
